This experiment concerns Reserpine-Induced Tardive Dyskinesia in Mice. The experiment is described as follows: Reserpine-induced tardive dyskinesia in mice, vacuous chewing movements (VCM) count. The class given is in vivo. The note with it: for VCM frequency per 10 min. Mean ± S.E.M.: 1 hour post-administration, male CD1 mice. Here is the method: Male CD1 mice (Charles River Laboratories, France), about 3 month-old were used. During the acclimatization period, animals were housed 5 per cage, in Makrolon type IlIl cages, in the animal room (temperature: 20±2° C., humidity: minimum 45%, air changes: >12 per hour, light/dark cycle of 12 h/12 h [on at 7:00 A.M:]. Animals were allowed a minimum of 5 days period before experiment for acclimatization.
Reserpine (Sigma) was dissolved in glacial acetic acid, diluted in water and administered s.c. at 1 mg/kg. 2 injections were given separated by 48 h. SPM 927 was studied at 3 doses (3, 10 and 30 mg/kg; i.p.) given as a single injection. Clonazepam was administered at 1 mg/kg, i.p. (3).
Reserpine was given twice (Day 1 and Day 3) and SPM 927 was administered 24 h after the last injection of reserpine (Day 4). Behavioral assessment was carried out 1 hour after drug injection (for 10 min). For the behavioral assessment, animals were placed in a plexiglass cage and after 5 min period of habituation, vacuous chewing movements (VCM) were counted for 10 min. VCM occurring during a grooming period were not taken into account.
Results are expressed as means±S.E.M.s of ten individual values. Statistical analyses was done with ANOVA (one way) and Dunnett's t-test. Significance was considered as p<0.05.

Entries after “also recorded” stand apart in the source; their conditions may differ.

As for `COC[C@@H](NC(C)=O)C(=O)NCc1ccccc1` [SPM 927, (R)-2-acetamide-N-benzyl-3-methoxypropionamide], the “effect on reserpine-induced dyskinesia (in words)” value (3 mg/kg i.p., lowest dose) is on record as “little or no effect”. The “effect on number of vacuous chewing movements (in words)” value runs as follows: (10 mg/kg i.p.) “reduced the number of vacuous chewing movements”; (30 mg/kg i.p., highest dose, statistically significant (p<0.05 versus vehicle group)) “reduced the number of vacuous chewing movements”. Besides, the “VCM frequency per 10 min. Mean ± S.E.M.” value is, setting by setting: (Reserpine 1 mg/kg s.c. + SPM 927 3 mg/kg i.p., reserpine + vehicle group 41.4 ± 6.4) 48.6 ± 10.6 per 10 min; (Reserpine 1 mg/kg s.c. + SPM 927 10 mg/kg i.p., reserpine + vehicle group 41.4 ± 6.4) 26.6 ± 5.7 per 10 min; (Reserpine 1 mg/kg s.c. + SPM 927 30 mg/kg i.p., p < 0.05 versus reserpine + vehicle group (41.4 ± 6.4)) 23.9 ± 7.9 per 10 min. Further, the “overall effect on reserpine-induced tardive dyskinesia / vacuous chewing movements (in words)” value (mice, no dose stated) is recorded as “attenuates reserpine induced vacuous chewing movements; also recorded: significant efficacy in reducing tardive dyskinesia”.

The record behind these values is patent US7416864B2, “Method for treating dyskinesia” (Schwarz Pharma AG, priority 2004, dated 2008).
